Source: US20230192705A1, “SHP2 INHIBITORS, COMPOSITIONS AND USES THEREOF” (Betta Pharmaceuticals Co., Ltd, priority 2020, published 2023)

Molecular target: T1, SHP2 (Homo sapiens, UniProt Q06124)
T1 sequence (Q06124 1-593): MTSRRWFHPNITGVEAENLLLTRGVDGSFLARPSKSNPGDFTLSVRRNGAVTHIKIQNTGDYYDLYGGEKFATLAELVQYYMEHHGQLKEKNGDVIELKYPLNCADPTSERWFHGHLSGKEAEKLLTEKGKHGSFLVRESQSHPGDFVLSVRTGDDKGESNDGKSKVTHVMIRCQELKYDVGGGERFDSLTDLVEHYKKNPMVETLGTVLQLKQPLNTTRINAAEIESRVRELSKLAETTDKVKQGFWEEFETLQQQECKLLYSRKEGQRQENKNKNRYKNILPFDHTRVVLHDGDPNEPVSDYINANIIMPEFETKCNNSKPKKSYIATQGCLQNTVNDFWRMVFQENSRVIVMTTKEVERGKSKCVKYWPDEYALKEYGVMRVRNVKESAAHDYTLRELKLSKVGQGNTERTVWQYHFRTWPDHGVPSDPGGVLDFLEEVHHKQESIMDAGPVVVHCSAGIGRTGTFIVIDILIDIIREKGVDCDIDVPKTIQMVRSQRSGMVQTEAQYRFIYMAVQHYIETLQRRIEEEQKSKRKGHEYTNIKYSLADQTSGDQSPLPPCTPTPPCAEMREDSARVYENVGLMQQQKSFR
Experiment: SHP2 allosteric inhibitor enzyme activity assay (DiFMUP fluorescence)
Assay type: biochemical
Conditions: class symbols
Excerpt: SHP2 is activated by the binding of a bis-tyrosyl-phosphorylated peptide to its Src homologous 2 (SH2) domain. This subsequent activation step leads to the release of the automatic inhibition interface of SHP2, which in turn activates the SHP2 protein tyrosine phosphatase (PTP) and can be used for substrate recognition and reaction catalysis. The catalytic activity of SHP2 was monitored using the alternative DiFMUP in a rapid fluorescence assay format.
Assay procedures are as follows:
(1) Compound Formulation:
The compound of the present invention (10 mM stock solution) was diluted to a suitable multiple with 100% DMSO and assay buffer, and the final test concentration of the compound of the present invention was 1 μM, 0.333 μM, 0.111 μM, 0.0370 μM, 0.0124 μM, 0.00412 μM, 0.00137 μM, 0.00046 μM, 0.00015 μM, 0.00 μM;
(2) Preparation of Enzyme Reaction Working Fluid:
SHP2 enzyme activity was performed using a final reaction volume of 50 μL and the following assay buffer conditions in 96-well black polystyrene plates (flat bottom, low flange, non-bonding surface) (Perki Elmer, Cat #6005270) at room temperature: 60 mM HEPES, 75 mM NaCl, 75 mM KCl, 0.05% BRIJ-35, 1 mM EDTA, 5 mM DTT.
(3) Enzyme Catalytic Reaction and Data Monitoring:
Compounds of the present invention were added to the corresponding 96-well plates, and no compound and enzyme were provided as blank test wells. SHP2 Activating Peptide (IRS1_pY1172 (dPEG8)pY1222) was placed on ice for melting, and 0.5 μM was added per well, then 0.2 ng SHP2 protein samples were added to corresponding well plates, and incubated at room temperature for 1 hour. Substrate DiFMUP (Invitrogen, Cat #D6567) was added to the reaction at room temperature for 1 hour. Fluorescence signals were monitored using an enzyme reader (Envision, Perki Elmer) using excitation wavelengths and emission wavelengths of 340 nm and 450 nm, respectively.
Inhibition %=[1−(Conversion_sample−Conversion_min)/(Conversion_max−Conversion_min)]*100% Calculation formula: […]
where: Conversion_sample is the mean reading of the sample wells; Conversion_min is the mean reading of blank control wells, representing the reading of the wells without enzyme; Conversion_max is the mean of positive control wells, representing the reading of the wells without inhibitor.
The dose-response curve is fitted with GraphPad Prism software and IC50 was calculated by the “log[inhibitor] vs. response-variable slope” program.

Compound: Cc1nc(N2CCC3(CC2)CO[C@@H](C)[C@H]3N)c(CO)nc1C1(c2ccccc2)CC1 [Example 261, (3-((3S,4S)-4-amino-3-methyl-2-oxa-8-azaspiro[4.5]decan-8-yl)-5-methyl-6-(1-phenylcyclopropyl)pyrazin-2-yl)methanol]
- IC50: > 60 nM

Compound: N[C@@H]1c2ccccc2CC12CCN(c1nc3[nH]nc(C4=C(F)CCc5nc(Cl)ccc54)c3c(=O)[nH]1)CC2 [Example 188, (S)-6-(1-amino-1,3-dihydrospiro[indene-2,4′-piperidin]-1′-yl)-3-(2-chloro-6-fluoro-7,8-dihydroquinolin-5-yl)-1,5-dihydro-4H-pyrazolo[3,4-d]pyrimidin-4-one]
- IC50: ≤ 20 nM

Compound: N[C@@H]1c2ccccc2CC12CCN(c1nc3[nH]nc(C4=CCCc5ncc(C(F)(F)F)cc54)c3c(=O)[nH]1)CC2 [Example 138, (S)-6-(1-amino-1,3-dihydrospiro[indene-2,4′-piperidin]-1′-yl)-3-(3-(trifluoromethyl)-7,8-dihydroquinolin-5-yl)-1,5-dihydro-4H-pyrazolo[3,4-d]pyrimidin-4-one]
- IC50: 20 to 60 nM

Compound: Cc1cc(C(F)(F)F)c2c(n1)CCC=C2c1n[nH]c2nc(N3CCC4(CC3)Cc3ccccc3[C@H]4N)[nH]c(=O)c12 [Example 140, (S)-6-(1-amino-1,3-dihydrospiro[indene-2,4′-piperidin]-1′-yl)-3-(2-methyl-4-(trifluoromethyl)-7,8-dihydroquinolin-5-yl)-1,5-dihydro-4H-pyrazolo[3,4-d]pyrimidin-4-one]
- IC50: 20 to 60 nM

Compound: N[C@@H]1c2ccccc2CC12CCN(c1nc3[nH]nc(C4(c5ccccc5C(F)(F)F)CC4)c3c(=O)[nH]1)CC2 [Example 15, (S)-6-(1-amino-1,3-dihydrospiro[indene-2,4′-piperidin]-1′-yl)-3-(1-(2-(trifluoromethyl)phenyl)cyclo-propyl)-1,5-dihydro-4H-pyrazolo[3,4-d]pyrimidin-4-one]
- IC50: ≤ 20 nM

Compound: N[C@@H]1CCCC12CCN(c1nc3[nH]nc(C4(c5ccccc5)CC4)c3c(=O)[nH]1)CC2 [Example 321, (R)-6-(1-amino-8-azaspiro[4.5]decan-8-yl)-3-(1-phenylcyclopropyl)-1,5-dihydro-4H-pyrazolo[3,4-d]pyrimidin-4-one]
- IC50: 20 to 60 nM

Compound: N[C@@H]1c2ccccc2CC12CCN(c1nc3[nH]nc(C4(c5ccccc5)CCOC4)c3c(=O)[nH]1)CC2 (stereo partly drawn) [Example 98, 6-((S)-1-amino-1,3-dihydrospiro[indene-2,4′-piperidin]-1′-yl)-3-(3-phenyltetrahydrofuran-3-yl)-1,5-dihydro-4H-pyrazolo[3,4-d]pyrimidin-4-one]
- IC50: 20 to 60 nM

Compound: N[C@@H]1c2ccccc2CC12CCN(c1nc3[nH]nc(C4(c5nccs5)CC4)c3c(=O)[nH]1)CC2 [Example 84, (S)-6-(1-amino-1,3-dihydrospiro[indene-2,4′-piperidin]-1′-yl)-3-(1-(thiazol-2-yl)cyclopropyl)-1,5-dihydro-4H-pyrazolo[3,4-d]pyrimidin-4-one]
- IC50: ≤ 20 nM

Compound: N[C@@H]1c2ccccc2CC12CCN(c1nc3[nH]nc(C4(c5cnccn5)CC4)c3c(=O)[nH]1)CC2 [Example 51, (S)-6-(1-amino-1,3-dihydrospiro[indene-2,4′-piperidin]-1′-yl)-3-(1-(pyrazin-2-yl)cyclopropyl)-1,5-dihydro-4H-pyrazolo[3,4-d]pyrimidin-4-one]
- IC50: ≤ 20 nM

Compound: N#Cc1ccc2c(c1)[C@@H](N)C1(CCN(c3nc4[nH]nc(C5(c6ccccc6)CC5)c4c(=O)[nH]3)CC1)C2 [Example 197, (S)-1-amino-1′-(4-oxo-3-(1-phenylcyclopropyl)-4,5-dihydro-1H-pyrazolo[3,4-d]pyrimidin-6-yl)-1,3-dihydrospiro[indene-2,4′-piperidine]-6-carbonitrile]
- IC50: ≤ 20 nM

Compound: N[C@@H]1c2ccccc2CC12CCN(c1nc3[nH]nc(C4=CCC5(CC5)c5ccccc54)c3c(=O)[nH]1)CC2 [Example 132, (S)-6-(1-amino-1,3-dihydrospiro[indene-2,4′-piperidin]-1′-yl)-3-(2′H-spiro[cyclopropane-1,1′-naphthalen]-4′-yl)-1,5-dihydro-4H-pyrazolo[3,4-d]pyrimidin-4-one]
- IC50: ≤ 20 nM

Compound: N[C@@H]1c2ccccc2CC12CCN(c1nc3[nH]nc(C4=CCC(F)(F)c5ccccc54)c3c(=O)[nH]1)CC2 [Example 123, (S)-6-(1-amino-1,3-dihydrospiro[indene-2,4′-piperidin]-1′-yl)-3-(4,4-difluoro-3,4-dihydronaphtlialen-1-yl)-1,5-dihydro-4H-pyrazolo[3,4-d]pyrimidin-4-one]
- IC50: ≤ 20 nM

Compound: N[C@@H]1c2nc(Cl)sc2CC12CCN(c1nc3[nH]nc(C4(c5ccccc5)CC4)c3c(=O)[nH]1)CC2 [Example 193, (S)-6-(4-amino-2-chloro-4,6-dihydrospiro[cyclopenta[d]thiazole-5,4′-piperidin]-1′-yl)-3-(1-phenylcyclopropyl)-1,5-dihydro-4H-pyrazolo[3,4-d]pyrimidin-4-one]
- IC50: ≤ 20 nM

Compound: C[C@@H]1OCC2(CCN(c3nc4[nH]nc(C5(c6ccc(F)cc6)CC5)c4c(=O)[nH]3)CC2)[C@@H]1N [Example 292, 6-((3S,4S)-4-amino-3-methyl-2-oxa-8-azaspiro[4.5]decan-8-yl)-3-(1-(4-fluorophenyl)cyclopropyl)-1,5-dihydro-4H-pyrazolo[3,4-d]pyrimidin-4-one]
- IC50: 20 to 60 nM

Compound: N[C@@H]1c2ccccc2CC12CCN(c1nc3[nH]nc(C4(c5cnn(Cc6ccccc6)c5)CC4)c3c(=O)[nH]1)CC2 [Example 57, (S)-6-(1-amino-1,3-dihydrospiro[indene-2,4′-piperidin]-1′-yl)-3-(1-(1-benzyl-1H-pyrazol-4-yl)cyclopropyl)-1,5-dihydro-4H-pyrazolo[3,4-d]pyrimidin-4-one]
- IC50: ≤ 20 nM

Compound: N[C@@H]1c2ccccc2CC12CCN(c1nc3[nH]nc(C4(c5cccc(C6CCOC6)c5)CC4)c3c(=O)[nH]1)CC2 (stereo partly drawn) [Example 39, 6-((S)-1-amino-1,3-dihydrospiro[indene-2,4′-piperidin]-1′-yl)-3-(1-(3-(tetrahydrofuran-3-yl)phenyl)cyclopropyl)-1,5-dihydro-4H-pyrazolo[3,4-d]pyrimidin-4-one]
- IC50: ≤ 20 nM

Compound: N[C@@H]1Cn2nccc2C12CCN(c1nc3[nH]nc(C4(c5ccccc5)CC4)c3c(=O)[nH]1)CC2 [Example 199, (S)-6-(5′-amino-5′,6′-dihydrospiro[piperidine-4,4′-pyrrolo[1,2-b]pyrazol]-1-yl)-3-(1-phenylcyclopropyl)-1,5-dihydro-4H-pyrazolo[3,4-d]pyrimidin-4-one]
- IC50: 20 to 60 nM

Compound: N[C@@H]1c2ccccc2CC12CCN(c1nc3[nH]nc(C4(c5cccc6ccccc56)CC4)c3c(=O)[nH]1)CC2 [Example 77, (S)-6-(1-amino-1,3-dihydrospiro[indene-2,4′-piperidin]-1′-yl)-3-(1-(naphthalen-1-yl)cyclopropyl)-1,5-dihydro-4H-pyrazolo[3,4-d]pyrimidin-4-one]
- IC50: ≤ 20 nM

Compound: C[C@@H]1OCC2(CCN(c3nc(N)c(C4(c5ccccc5)CC4)c(=O)n3C)CC2)[C@@H]1N [Example 264, 6-amino-2-((3S,4S)-4-amino-3-methyl-2-oxa-8-azaspiro[4.5]decan-8-yl)-3-methyl-5-(1-phenylcyclopropyl)pyrimidin-4(3H)-one]
- IC50: > 60 nM

Compound: C[C@@H]1OCC2(CCN(c3nc4[nH]nc(C5(c6cccc(C#N)c6)CC5)c4c(=O)[nH]3)CC2)[C@@H]1N [Example 290, 3-(1-(6-((3S,4S)-4-amino-3-methyl-2-oxa-8-azaspiro[4.5]decan-8-yl)-4-oxo-4,5-dihydro-1H-pyrazolo[3,4-d]pyrimidin-3-yl)cyclopropyl)benzonitrile]
- IC50: 20 to 60 nM
